Assay results as given in US10214533B2, “N-acyl-(3-substituted)-5,6,7,8-tetrahydro-[1,2,4]triazolo[4,3-a]pyrazines as selective NK-3 receptor antagonists, pharmaceutical composition, methods for use in NK-3 receptor-mediated disorders” (OGEDA SA, priority 2013, dated 2019).

These compounds were tested on plasma protein (assay: Determination of plasma protein binding (rapid equilibrium dialysis)). Conditions: 4 hours at 37° C.
Assay type: in vitro ADME
Description: The determination of plasma protein binding (PPB) of a compound is enabled by equilibrium dialysis, an accepted and standard method for reliable estimation of the non-bound drug fraction in plasma. RED (Rapid Equilibrium Dialysis) device insert is made of two side-by-side chambers separated by an O-ring-sealed vertical cylinder of dialysis membrane (MWCO ˜8,000). […] After 4 hours incubation at 37° C. under shaking, an aliquot is removed from each chamber and analyzed by a LC-MS/MS procedure enables the determination of both free and bound drug.
The “free fraction” may be calculated as 100%−% rPPB (i.e. the complementary percentage of that disclosed in Table 4, corresponding to the drug concentration that is unbound and therefore available to engage biological target and elicit pharmacological activity).

Compound	Exposure (% rPPB), bound drug fraction to the plasma protein [%]
Cc1nsc(-c2nnc3n2CCN(C(=O)c2ccc(F)c(F)c2)C3)n1 [Compound 5, (3,4-difluorophenyl)(3-(3-methyl-1,2,4-thiadiazol-5-yl)-5,6-dihydro-[1,2,4]triazolo[4,3-a]pyrazin-7(8H)-yl)methanone]	28
Cc1nsc(-c2nnc3n2CCN(C(=O)c2ccc(F)c(F)c2F)C3)n1 [Compound 7, (3-(3-methyl-1,2,4-thiadiazol-5-yl)-5,6-dihydro-[1,2,4]triazolo[4,3-a]pyrazin-7(8H)-yl)(2,3,4-trifluorophenyl)methanone]	25
Cc1nsc(-c2nnc3n2CCN(C(=O)c2cc(F)c(F)c(F)c2)C3)n1 [Compound 6, (3-(3-methyl-1,2,4-thiadiazol-5-yl)-5,6-dihydro-[1,2,4]triazolo[4,3-a]pyrazin-7(8H)-yl)(3,4,5-trifluorophenyl)methanone]	27
Cc1nsc(-c2nnc3n2CCN(C(=O)c2ccc(F)c(Cl)c2)C3)n1 [Compound 4, (3-chloro-4-fluorophenyl)(3-(3-methyl-1,2,4-thiadiazol-5-yl)-5,6-dihydro-[1,2,4]triazolo[4,3-a]pyrazin-7(8H)-yl)methanone]	52
Cc1nsc(-c2nnc3n2CCN(C(=O)c2ccc(Cl)c(F)c2)C3)n1 [Compound 3, (4-chloro-3-fluorophenyl)(3-(3-methyl-1,2,4-thiadiazol-5-yl)-5,6-dihydro-[1,2,4]triazolo[4,3-a]pyrazin-7(8H)-yl)methanone]	54
Cc1nsc(-c2nnc3n2CCN(C(=O)c2ccc(Cl)cc2)C3)n1 [Compound 2, (4-chlorophenyl)(3-(3-methyl-1,2,4-thiadiazol-5-yl)-5,6-dihydro-[1,2,4]triazolo[4,3-a]pyrazin-7(8H)-yl)methanone]	49

The compounds below were run on circulating LH levels (assay: Castrated male rat model, circulating luteinizing hormone (LH) levels, oral dosing). Conditions: castrated male SD rat, single oral dose less than or equal to 30 mg/kg, p<0.05.
Assay type: in vivo
Description: The effect of compounds of the invention to inhibit luteinizing hormone (LH) secretion is determined by the following biological studies. In humans and rodents, castration is well-precedented to permit heightened, persistent GnRH signaling and consequent elevation of circulating LH. Thus, a castrated rat model is used to provide a broad index for measurement of LH inhibition as a marker of test compound inhibition of the GnRH signaling pathway. Castrated adult male Sprague-Dawley (SD) rats (150-175 g) were purchased from Janvier (St Berthevin, France). All animals were housed 2 per cage in a temperature-controlled room (22±2° C.) and 50±5% relative humidity with a 12 hour/12 hour light/dark cycles (lights off at 6 h00 pm). The animals were allowed 3 weeks of postoperative recovery prior to study. Animals were handled on a daily basis. Standard diet and tap water were provided ad libitum. Animal cage litters were changed once a week. On the study day, animals were acclimated to the procedure room for a period of one hour prior to the initiation of the experiment. Compounds of the invention were formulated in 0.5% methyl cellulose. After basal sampling (TO) a single dose of compounds of the invention or vehicle was administrated orally to rats. […] Serum LH levels were determined using radioimmunoassay kit from RIAZEN—Rat LH, Zentech (Liège, Belgium). […]

Compound	Suppression of circulating LH levels
Cc1nsc(-c2nnc3n2CCN(C(=O)c2ccc(F)cc2)C3)n1 [Compound 1, (4-fluorophenyl)(3-(3-methyl-1,2,4-thiadiazol-5-yl)-5,6-dihydro-[1,2,4]triazolo[4,3-a]pyrazin-7(8H)-yl)methanone]	significantly suppressed circulating LH levels
